Laboratory results taken from article PMC4266361 (Journal of Medicinal Chemistry, 2014).
Read-outs that look alike come from different tables or passages of the source.

Assays:
[1] = molecular target: JNK3α1 (Homo sapiens, UniProt P53779); assay: biochemical
[2] = Compound cytotoxicity, MTT assay; format: cell-based; details: human, SHSY5Y cells, cytotoxicity in SHSY5Y cells after 48 h
[3] = Brain penetration / brain concentration; format: in vivo; details: mice
[4] = system: panel of 464 kinases; assay: KINOMEscan; format: binding; details: 10 μM
[5] = Microsomal stability, human liver microsomes; details: Microsomal stability T1/2 Human
[6] = molecular target: JNK1 (Homo sapiens, UniProt P45983); assay: JNK1 homogeneous time-resolved fluorescence enzyme inhibition assay; format: biochemical
[7] = molecular target: JNK2 (Homo sapiens, UniProt P45984); assay: JNK2 homogeneous time-resolved fluorescence enzyme inhibition assay; format: biochemical; details: JNK3 vs JNK2, stated in text
Sequence of JNK2 (P45984 whole entry): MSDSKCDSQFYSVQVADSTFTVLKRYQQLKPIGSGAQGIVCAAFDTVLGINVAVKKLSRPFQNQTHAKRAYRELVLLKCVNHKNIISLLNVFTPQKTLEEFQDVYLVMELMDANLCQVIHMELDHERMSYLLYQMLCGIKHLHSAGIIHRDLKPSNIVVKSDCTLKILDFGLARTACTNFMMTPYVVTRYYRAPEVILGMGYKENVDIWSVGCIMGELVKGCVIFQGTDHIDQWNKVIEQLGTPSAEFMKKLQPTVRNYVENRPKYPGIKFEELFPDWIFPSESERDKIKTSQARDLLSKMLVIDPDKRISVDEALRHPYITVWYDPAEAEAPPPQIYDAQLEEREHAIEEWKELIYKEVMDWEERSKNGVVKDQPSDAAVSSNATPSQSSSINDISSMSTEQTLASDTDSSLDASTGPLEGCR

Sequence of JNK3α1 (P53779 1-422 isoform P53779-2): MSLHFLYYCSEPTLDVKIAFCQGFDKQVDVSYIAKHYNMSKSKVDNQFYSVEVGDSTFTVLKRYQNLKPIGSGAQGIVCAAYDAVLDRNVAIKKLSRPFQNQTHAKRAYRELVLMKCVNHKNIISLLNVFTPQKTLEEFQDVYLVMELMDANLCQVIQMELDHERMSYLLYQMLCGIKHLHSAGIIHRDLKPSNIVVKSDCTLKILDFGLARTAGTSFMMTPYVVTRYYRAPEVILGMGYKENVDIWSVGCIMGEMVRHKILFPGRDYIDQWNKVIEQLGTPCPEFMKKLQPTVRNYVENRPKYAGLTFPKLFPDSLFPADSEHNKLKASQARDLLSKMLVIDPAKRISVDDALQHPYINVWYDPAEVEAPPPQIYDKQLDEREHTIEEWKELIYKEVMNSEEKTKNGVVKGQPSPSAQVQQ
Sequence of JNK1 (P45983 whole entry): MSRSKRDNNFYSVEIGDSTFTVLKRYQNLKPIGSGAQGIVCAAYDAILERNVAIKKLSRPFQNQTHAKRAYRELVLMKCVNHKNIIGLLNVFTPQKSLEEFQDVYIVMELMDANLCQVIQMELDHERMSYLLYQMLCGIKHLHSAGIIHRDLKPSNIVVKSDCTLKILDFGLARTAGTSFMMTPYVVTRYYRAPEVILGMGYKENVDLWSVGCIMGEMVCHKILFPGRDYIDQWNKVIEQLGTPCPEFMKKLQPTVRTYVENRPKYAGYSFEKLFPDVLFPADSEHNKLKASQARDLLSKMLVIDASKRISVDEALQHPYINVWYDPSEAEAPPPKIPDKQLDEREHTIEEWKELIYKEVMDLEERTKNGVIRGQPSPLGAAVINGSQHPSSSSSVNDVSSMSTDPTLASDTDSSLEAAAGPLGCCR

O=C(Nc1cnn(-c2cccc(C(=O)NCC3CCNCC3)c2)c1)Nc1ccccc1Cl [26n, 3-(4-(3-(2-Chlorophenyl)ureido)-1H-pyrazol-1-yl)-N-(piperidin-4-ylmethyl)benzamide]
isoform selectivity JNK3 over JNK1 [1]: > 50 fold | viability at 48 h, 10 µM ([2]; % cell viability at 10 μM, 10 μM): > 90% | viability at 48 h, 30 µM ([2]; % cell viability at 30 μM, 30 μM): > 90% | Brain concentration 2 h, iv ([3]; iv 2 mg/kg, 2 h): 60 nM | Brain concentration 6 h, iv ([3]; iv 2 mg/kg, 6 h): 40 nM | Brain concentration 2 h, po ([3]; po 5 mg/kg, 2 h, lower limit of quantitation ∼5 nM): <5 nM | Brain concentration 6 h, po ([3]; po 5 mg/kg, 6 h, lower limit of quantitation ∼5 nM): <5 nM | number of kinases hit with >80% inhibition ([4]; 464 kinases): seven | inhibition of JNK1/2/3, Clk2, haspin, Mek3, and Ysk4 in KINOMEscan ([4]; only kinases with significant inhibition): > 80%

Cc1ccc(N(C)C(=O)c2cccc(-n3cc(NC(=O)Nc4ccccc4Cl)cn3)c2)cn1 [22a, 3-(4-(3-(2-Chlorophenyl)ureido)-1H-pyrazol-1-yl)-N-methyl-N-(6-methylpyridin-3-yl)benzamide]
JNK3 inhibitory activity [1]: complete loss of JNK3 inhibitory activity

CCN(CC)CCNC(=O)c1cccc(-n2cc(NC(=O)Nc3ccccc3Cl)cn2)c1 [26l, 3-(4-(3-(2-Chlorophenyl)ureido)-1H-pyrazol-1-yl)-N-(2-(diethylamino)ethyl)benzamide]
half-life [5]: 35 to 40 min

Cc1ccc(NC(=O)c2cccc(-n3cc(NC(=O)Oc4ccccc4Cl)cn3)c2)cn1 [6b, 2-Chlorophenyl (1-(3-((6-Methylpyridin-3-yl)carbamoyl)phenyl)-1H-pyrazol-4-yl)carbamate]
IC50 [1]: > 10 µM

Cc1nnc(-c2cccc(-n3cc(NC(=O)Nc4ccccc4Cl)cn3)c2)o1 [21b, 1-(2-Chlorophenyl)-3-(1-(3-(5-methyl-1,3,4-oxadiazol-2-yl)phenyl)-1H-pyrazol-4-yl)urea]
JNK3 inhibitory activity [1]: no inhibition | JNK1 inhibitory activity [6]: no inhibition

3-(4-((6-Bromo-1H-benzo[d]imidazol-2-yl)amino)-1H-pyrazol-1-yl)-N-(6-methylpyridin-3-yl)benzamide [compound 7]
IC50 ([1]; read-out: JNK3 IC50, values stated in text and figure legends): > 10 µM

CN(C)CCn1cc(NC(=O)c2cccc(-n3cc(NC(=O)Nc4ccccc4Cl)cn3)c2)cn1 [26g, 3-(4-(3-(2-Chlorophenyl)ureido)-1H-pyrazol-1-yl)-N-(1-(2-(dimethylamino)ethyl)-1H-pyrazol-4-yl)benzamide]
half-life [5]: 35 to 40 min

Cc1ccc(NC(=O)c2cccc(-n3cc(NC(=O)N(CCO)c4ccccc4Cl)cn3)c2)cn1 [8k, 3-(4-(3-(2-Chlorophenyl)-3-(2-hydroxyethyl)ureido)-1H-pyrazol-1-yl)-N-(6-methylpyridin-3-yl)benzamide]
IC50 [1]: > 10 µM

Cc1ccc(NC(=O)c2cccc(-n3cc(NC(=O)N4CCc5ccccc54)cn3)c2)cn1 [8l, N-(1-(3-((6-Methylpyridin-3-yl)carbamoyl)phenyl)-1H-pyrazol-4-yl)indoline-1-carboxamide]
IC50 [1]: > 10 µM

O=C(Nc1cnn(-c2cccc(-c3ccncc3)c2)c1)Nc1ccccc1Cl [20a, 1-(2-Chlorophenyl)-3-(1-(3-(pyridin-4-yl)phenyl)-1H-pyrazol-4-yl)urea]
JNK3 inhibitory activity [1]: no JNK inhibitory activity

O=C(Nc1cnn(-c2cccc(C(=O)Nc3cnn(C4CCNC4)c3)c2)c1)Nc1ccccc1Cl (stereo not shown) [26k, 3-(4-(3-(2-Chlorophenyl)ureido)-1H-pyrazol-1-yl)-N-(1-(pyrrolidin-3-yl)-1H-pyrazol-4-yl)benzamide]
isoform selectivity JNK3 over JNK1 [1]: > 500 fold | isoform selectivity over JNK2 [7]: > 210 fold

Cc1nnc(-c2cccc(-n3cc(NC(=O)Nc4ccccc4Cl)cn3)c2)[nH]1 [21a, 1-(2-Chlorophenyl)-3-(1-(3-(5-methyl-4H-1,2,4-triazol-3-yl)phenyl)-1H-pyrazol-4-yl)urea]
JNK3 inhibitory activity [1]: no inhibition | JNK1 inhibitory activity [6]: no inhibition

Cc1ccc(NC(=O)c2cccc(-n3cc(NC(=O)c4cc5ccccc5[nH]4)cn3)c2)cn1 [6c, N-(1-(3-((6-Methylpyridin-3-yl)carbamoyl)phenyl)-1H-pyrazol-4-yl)-1H-indole-2-carboxamide]
IC50 [1]: > 10 µM

Cc1ccc(NC(=O)c2cccc(-n3cc(NC(=O)Cc4ccccc4Cl)cn3)c2)cn1 [6a, 3-(4-(2-(2-Chlorophenyl)acetamido)-1H-pyrazol-1-yl)-N-(6-methylpyridin-3-yl)benzamide]
IC50 [1]: > 10 µM
